Experimental data published in US6737383B1, “Herbicidal oxadiazolidines” (priority 1999, dated 2004).

Columns and labels:
giant foxtail = assay: Test B pre/postemergence giant foxtail; type: in vivo, Setaria faberii
In short: (§1)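 Response is a visual 0-to-10 score relative to untreated plants, where 0 means no effect and 10 means complete control, taken twelve to sixteen days after application. Treatments went onto soil at planting and onto foliage of 1- to 4-leaf plants, using a surfactant-containing non-phytotoxic solvent.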

sugar beet = assay: Test B pre/postemergence sugar beet; type: in vivo, Beta vulgaris
In short: as §1

crabgrass = assay: Test B pre/postemergence crabgrass; type: in vivo, Digitaria sanguinalis
In short: as §1

bedstraw = assay: Test B pre/postemergence bedstraw; type: in vivo, Galium aparine; details: Preemergence
In short: as §1

soybean = assay: Test B pre/postemergence soybean; type: in vivo, Glycine max; details: for Plant response rating, Soybean: Postemergence
In short: as §1

wheat = assay: Test B pre/postemergence wheat; type: in vivo, Triticum aestivum; details: for Plant response rating, Wheat: Postemergence
In short: as §1

pigweed = assay: Test B pre/postemergence pigweed; type: in vivo, Amaranthus retroflexus; details: for Plant response rating, Redroot pigweed: Postemergence
In short: as §1

rape = assay: Test B pre/postemergence rape; type: in vivo, Brassica napus
In short: as §1

cocklebur = assay: Test B pre/postemergence cocklebur; type: in vivo, Xanthium strumarium
In short: as §1

corn = assay: Test B pre/postemergence corn; type: in vivo, Zea mays
In short: as §1

morningglory = assay: Test B pre/postemergence morningglory; type: in vivo, Ipomoea hederacea
In short: as §1

wild oat = assay: Test B pre/postemergence wild oat; type: in vivo, Avena fatua; details: for Plant response rating, Wild oats: Postemergence
In short: as §1

surinam grass = assay: Test B pre/postemergence surinam grass; type: in vivo, Brachiaria decumbens; details: for Plant response rating, B. signalgrass: scale of 0 to 10 where 0 is no effect and 10 is complete control
In short: as §1

blackgrass = assay: Test B pre/postemergence blackgrass; type: in vivo, Alopecurus myosuroides
In short: as §1

velvetleaf = assay: Test B pre/postemergence velvetleaf; type: in vivo, Abutilon theophrasti; details: for Plant response rating, Velvetleaf: Postemergence
In short: as §1

purple nutsedge = assay: Test B pre/postemergence purple nutsedge; type: in vivo, Cyperus rotundus; details: for Nutsedge plant response rating: Rate 125 g/ha, scale 0 to 10, 0 is no effect, 10 is complete control
In short: as §1

[1] = Postemergence, Rate 125 g/ha, scale 0 to 10, 0 is no effect, 10 is complete control
[2] = Preemergence, Rate 62 g/ha, scale 0 to 10 (0 no effect, 10 complete control)
[3] = Preemergence, Rate 125 g/ha, scale 0 to 10, 0 is no effect, 10 is complete control
[4] = Preemergence, Rate 500 g/ha, scale of 0 to 10 where 0 is no effect and 10 is complete control
[5] = Rate 250 g/ha, Postemergence, scale of 0 to 10 where 0 is no effect and 10 is complete control
[6] = Postemergence, Rate 500 g/ha, scale of 0 to 10 where 0 is no effect and 10 is complete control
[7] = Postemergence, Rate 62 g/ha, scale of 0 to 10, 0 is no effect, 10 is complete control
[8] = Rate 500 g/ha, scale of 0 to 10 where 0 is no effect and 10 is complete control
[9] = Rate 250 g/ha, scale of 0 to 10 where 0 is no effect and 10 is complete control

SMILES: C=CCCCn1c(=O)on(C(=O)N(c2ccccc2)C(C)C)c1=O [Compound 575]
- Giant foxtail plant response rating (giant foxtail; [1]): 2
- Giant foxtail plant response rating (giant foxtail; [2]): 8
- Giant foxtail plant response rating (giant foxtail; [3]): 10
- Giant foxtail plant response rating (0 to 10 scale) (giant foxtail; Preemergence, Rate 250 g/ha): 10
- Giant foxtail plant response rating (giant foxtail; [4]): 10
- Plant response rating, Giant foxtail (giant foxtail; [5]): 8
- Plant response rating, Sugarbeets (sugar beet; [6]): 2
- Sugarbeets plant response rating (sugar beet; [2]): 0
- Sugarbeets plant response rating (sugar beet; [3]): 0
- Sugarbeets plant response rating (0 to 10 scale) (sugar beet; Preemergence, Rate 250 g/ha): 0
- Sugarbeets plant response rating (sugar beet; [4]): 2
- Crabgrass plant response rating (crabgrass; [7]): 0
- Crabgrass plant response rating (crabgrass; [1]): 2
- Plant response rating, Crabgrass (crabgrass; [6]): 9
- Crabgrass plant response rating (crabgrass; [2]): 8
- Crabgrass plant response rating (crabgrass; [3]): 9
- Crabgrass plant response rating (0 to 10 scale) (crabgrass; Preemergence, Rate 250 g/ha): 9
- Crabgrass plant response rating (crabgrass; [4]): 9
- Plant response rating, Crabgrass (crabgrass; [5]): 9
- Bedstraw plant response rating (bedstraw; Rate 62 g/ha, scale 0 to 10 (0 no effect, 10 complete control)): 0
- Bedstraw plant response rating (bedstraw; Rate 125 g/ha, scale 0 to 10, 0 is no effect, 10 is complete control): 0
- Bedstraw plant response rating (0 to 10 scale) (bedstraw; Rate 250 g/ha): 0
- Bedstraw plant response rating (bedstraw; [8]): 0
- Plant response rating, Soybean (soybean; [8]): 6
- Soybean plant response rating (soybean; [2]): 0
- Soybean plant response rating (soybean; [3]): 0
- Soybean plant response rating (0 to 10 scale) (soybean; Preemergence, Rate 250 g/ha): 0
- Soybean plant response rating (soybean; [4]): 0
- Plant response rating, Soybean (soybean; [9]): 5
- Plant response rating, Wheat (wheat; [8]): 2
- Wheat plant response rating (wheat; [2]): 0
- Wheat plant response rating (wheat; [3]): 0
- Wheat plant response rating (0 to 10 scale) (wheat; Preemergence, Rate 250 g/ha): 0
- Wheat plant response rating (wheat; [4]): 0
- Plant response rating, Wheat (wheat; [9]): 0
- Plant response rating, Redroot pigweed (pigweed; [8]): 7
- Redroot pigweed plant response rating (pigweed; [2]): 9
- Redroot pigweed plant response rating (pigweed; [3]): 9
- Redroot pigweed plant response rating (0 to 10 scale) (pigweed; Preemergence, Rate 250 g/ha): 10
- Redroot pigweed plant response rating (pigweed; [4]): 10
- Plant response rating, Redroot pigweed (pigweed; [9]): 4
- Rape plant response rating (rape; [7]): 0
- Rape plant response rating (rape; [1]): 0
- Plant response rating, Rape (rape; [6]): 3
- Rape plant response rating (rape; [2]): 0
- Rape plant response rating (rape; [3]): 2
- Rape plant response rating (0 to 10 scale) (rape; Preemergence, Rate 250 g/ha): 2
- Rape plant response rating (rape; [4]): 2
- Plant response rating, Rape (rape; [5]): 3
- Cocklebur plant response rating (cocklebur; [7]): 0
- Cocklebur plant response rating (cocklebur; [1]): 0
- Plant response rating, Cocklebur (cocklebur; [6]): 2
- Cocklebur plant response rating (cocklebur; [2]): 0
- Cocklebur plant response rating (cocklebur; [3]): 0
- Cocklebur plant response rating (0 to 10 scale) (cocklebur; Preemergence, Rate 250 g/ha): 0
- Cocklebur plant response rating (cocklebur; [4]): 0
- Plant response rating, Cocklebur (cocklebur; [5]): 0
- Corn plant response rating (corn; [7]): 0
- Corn plant response rating (corn; [1]): 0
- Plant response rating, Corn (corn; [6]): 0
- Corn plant response rating (corn; [2]): 0
- Corn plant response rating (corn; [3]): 0
- Corn plant response rating (0 to 10 scale) (corn; Preemergence, Rate 250 g/ha): 0
- Corn plant response rating (corn; [4]): 3
- Plant response rating, Corn (corn; [5]): 0
- Morningglory plant response rating (morningglory; [7]): 4
- Morningglory plant response rating (morningglory; [1]): 6
- Plant response rating, Morningglory (morningglory; [6]): 10
- Morningglory plant response rating (morningglory; [2]): 0
- Morningglory plant response rating (morningglory; [3]): 0
- Morningglory plant response rating (0 to 10 scale) (morningglory; Preemergence, Rate 250 g/ha): 0
- Morningglory plant response rating (morningglory; [4]): 2
- Plant response rating, Morningglory (morningglory; [5]): 9
- Plant response rating, Wild oats (wild oat; [8]): 0
- Wild oats plant response rating (wild oat; [2]): 0
- Wild oats plant response rating (wild oat; [3]): 0
- Wild oats plant response rating (0 to 10 scale) (wild oat; Preemergence, Rate 250 g/ha): 2
- Wild oats plant response rating (wild oat; [4]): 2
- Plant response rating, Wild oats (wild oat; [9]): 0
- B. signalgrass plant response rating (surinam grass; [7]): 0
- B. signalgrass plant response rating (surinam grass; [1]): 0
- Plant response rating, B. signalgrass (surinam grass; Postemergence, Rate 500 g/ha): 3
- B. signalgrass plant response rating (surinam grass; [2]): 6
- B. signalgrass plant response rating (surinam grass; [3]): 9
- B. signalgrass plant response rating (0 to 10 scale, 0 is no effect, 10 is complete control) (surinam grass; Preemergence, Rate 250 g/ha): 10
- Plant response rating, B. signalgrass (surinam grass; Rate 250 g/ha, Postemergence): 0
- Blackgrass plant response rating (blackgrass; [7]): 0
- Blackgrass plant response rating (blackgrass; [1]): 0
- Plant response rating, Blackgrass (blackgrass; [6]): 3
- Blackgrass plant response rating (blackgrass; [2]): 2
- Blackgrass plant response rating (blackgrass; [3]): 6
- Blackgrass plant response rating (0 to 10 scale) (blackgrass; Preemergence, Rate 250 g/ha): 7
- Blackgrass plant response rating (blackgrass; [4]): 2
- Plant response rating, Blackgrass (blackgrass; [5]): 0
- Plant response rating, Velvetleaf (velvetleaf; [8]): 3
- Velvetleaf plant response rating (velvetleaf; [2]): 0
- Velvetleaf plant response rating (velvetleaf; [3]): 0
- Velvetleaf plant response rating (0 to 10 scale) (velvetleaf; Preemergence, Rate 250 g/ha): 0
- Velvetleaf plant response rating (velvetleaf; [4]): 2
- Plant response rating, Velvetleaf (velvetleaf; [9]): 2
- Nutsedge plant response rating (purple nutsedge; Postemergence): 0
- Nutsedge plant response rating (purple nutsedge; Preemergence): 0
- Nutsedge plant response rating (0 to 10 scale) (purple nutsedge; Preemergence, Rate 250 g/ha): 0
- Plant response rating, Nutsedge (purple nutsedge; [5]): 0
